One compound from patent US20230190717A1, “P38 GAMMA INHIBITORS AND METHOD OF USE THEREOF” (City of Hope, priority 2017, published 2023) can be followed below.

The target of one data set is T1, p38β (Homo sapiens, UniProt Q15759).
T1 construct: human recombinant p38 α, β, γ or δ protein (active full-length); purchased SignalChem; host or cells: baculovirus in Sf9 insect cells
Description: ADP-Glo in vitro kinase assay, p38β. The format is biochemical. As for the experimental part: Kinase assay in vitro: Kinase enzyme assays in vitro were performed using ADP-Glo kit (Promega, Wis.). The luminescent ADP-Glo kinase assay measures ADP produced from ATP consumption in a kinase enzyme reaction. All compounds have been tested and shown no inhibition to luciferase activities. Briefly, in this experiment, human recombinant p38 α, β, γ or δ protein (active full-length) expressed by baculovirus in sf9 insect cells (SignalChem, Vancouver, Canada) was homogenized in wells of white opaque 96-well microplates with the kinase buffer that consisted of 40 mM Tris-HCl (pH 7.5), 20 mM MgCl2, 0.1 mg/mL BSA and 50 μM DTT. […] Next, synthetic peptide substrates ([…]) were added to the mixture at final concentration of 0.2 μg/μL, followed by adding ATP at various concentrations. The 50 μL mixture was reacted at room temperature for 60 min. […]
In vitro kinase assay (ADP-GLO): We identified p38γ inhibitors using in vitro kinase assay by screening a library of kinase inhibitors: The library consists of 244 compounds on three plates (EMD Cat #539744, #539745, and #539746) that are mostly ATP mimics. […] IC50 values were determined using […] software (Biosoft, Cambridge, United Kingdom).

A further data set deals with Hut78 cells. Put plainly: NanoString RNA gene expression profiling, Hut78. Type of data set: cell-based, human. Particulars: 50 nM, 10 h. The procedure: All samples were validated. Data were analyzed using nSolver 3.0 digital analyzer software and R program.
The next data set relates to p38γ. Description: p38γ mRNA level and protein expression (Western blot). The format is cell-based. Particulars: 4 hr. From the text: qRT-PCR (real-time quantitative reverse transcription PCR): Total RNA was generated using TRIZOL reagent (Life Technologies, Carlsbad, Calif.) followed by double DNase treatment and column purification using Qiagen RNeasy Clean-up (Qiagen, Germantown, Md.). The Invitrogen […] III First-Strand Synthesis System was used for cDNA synthesis and TaqMan 5700 Sequence Detection System (Applied Biosystems, Foster City, Calif.) were used for qRT-PCR. All PCR reactions were run in triplicate. The amplified transcripts were quantified using the comparative CT method as described. cDNA and primers for MAPK11, 12, 13, and 14 and GAPDH (Table 9) were added to SYBR GREEN PCR Master Mix (SYBR Green I Dye, […]® DNA polymerase, dNTPs with dUTP and optimal buffer components; Applied Biosystems) and subjected to PCR amplification (1 cycle at 95° C. for 3 min; 35 cycles at 95° C. for 15 s and 55° C. for 30 s; 1 cycle at 50° C. for 2 min).

The next data set relates to H3K27 acetylation. Put plainly: Immunofluorescence confocal microscopy of H3K27 acetylation. Type of data set: cell-based, human. Particulars: 800 nM, 10 hr. The procedure:
Immunofluorescence Confocal microscopy: Hut 78 Cells were cytospun unto the slides and fixed with 3.8% paraformaldehyde for 30 min at room temperature (RT) and then permeabilized with 0.25% Triton X-100 in PBS, for 10 min at RT. The cells were washed twice with PBS and blocked in 3% BSA in PBS for 1 h at RT. […] Coverslips were permanently mounted with DAPI (life Technologies) for nuclear staining. Observations were carried out using a confocal laser scanning microscope (zeiss LSM 700). Primary antibodies were used at the following dilutions: anti-ß-tubulin (1:200), H3K27 ac (CST, dilution 1:500), p-p38 (CST, dilution 1:500), DLGH1 (abcam) 1:1000.

Another data set has as its system Hut78 xenografts. Particulars: for tumor growth: intraperitoneal, vs vehicle.
The target of the next data set is T2, p38δ (Homo sapiens, UniProt O15264).
T2 sequence (O15264 1-365): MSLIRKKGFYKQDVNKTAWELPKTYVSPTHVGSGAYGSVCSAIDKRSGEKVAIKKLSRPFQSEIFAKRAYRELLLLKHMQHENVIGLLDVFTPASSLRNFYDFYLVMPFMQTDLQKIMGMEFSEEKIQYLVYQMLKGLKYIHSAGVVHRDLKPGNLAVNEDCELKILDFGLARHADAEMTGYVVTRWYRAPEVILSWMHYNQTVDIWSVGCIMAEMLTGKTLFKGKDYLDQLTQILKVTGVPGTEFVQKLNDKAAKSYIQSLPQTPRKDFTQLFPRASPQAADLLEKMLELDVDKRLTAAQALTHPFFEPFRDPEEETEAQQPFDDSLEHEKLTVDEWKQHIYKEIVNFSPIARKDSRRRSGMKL
Put plainly: Radiometric in vitro kinase assay (SignalChem), p38 δ. Particulars: 50 nM. Also noted: purchased SignalChem (assay service). The format is biochemical.

In the next data set the target is T3, p38 γ (Homo sapiens, UniProt P53778).
T3 sequence (P53778 1-367): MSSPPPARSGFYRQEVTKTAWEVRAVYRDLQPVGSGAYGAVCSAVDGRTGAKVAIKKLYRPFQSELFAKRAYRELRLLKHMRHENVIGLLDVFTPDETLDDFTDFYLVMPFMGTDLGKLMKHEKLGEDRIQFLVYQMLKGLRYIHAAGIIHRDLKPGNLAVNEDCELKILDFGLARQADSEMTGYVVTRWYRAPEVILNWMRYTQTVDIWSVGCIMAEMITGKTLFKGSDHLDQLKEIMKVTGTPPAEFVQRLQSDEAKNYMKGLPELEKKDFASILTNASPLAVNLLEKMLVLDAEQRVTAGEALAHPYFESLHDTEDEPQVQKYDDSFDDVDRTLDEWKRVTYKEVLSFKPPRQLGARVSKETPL
Description: Radiometric in vitro kinase assay (SignalChem), p38 γ. The following applies: 200 nM. Also on record: purchased SignalChem (assay service). Type of data set: biochemical.

Like-named read-outs stand apart in the source and are kept apart here.

T1 sequence (Q15759 whole entry): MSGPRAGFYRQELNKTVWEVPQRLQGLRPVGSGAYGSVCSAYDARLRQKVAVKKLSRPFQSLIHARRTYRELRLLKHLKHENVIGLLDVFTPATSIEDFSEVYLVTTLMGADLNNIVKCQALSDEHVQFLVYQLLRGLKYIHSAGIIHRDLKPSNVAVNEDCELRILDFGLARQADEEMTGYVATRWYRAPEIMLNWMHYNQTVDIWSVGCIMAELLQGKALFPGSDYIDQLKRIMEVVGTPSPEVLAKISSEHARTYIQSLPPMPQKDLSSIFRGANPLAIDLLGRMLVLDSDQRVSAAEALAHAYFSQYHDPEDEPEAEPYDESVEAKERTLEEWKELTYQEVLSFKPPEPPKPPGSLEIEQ
Description for Hut78 xenografts: Female and male 6-week-old NSG mice (NOD-scid IL2Rγ null) were purchased from Jackson Laboratory (Sacramento, Calif.). Hut78 cells were used for developing CTCL xenograft tumors. Briefly, 5 million cells in 100 μL (50% Matrigel/50% PBS) were injected subcutaneously into the right flank of each mouse, and tumor development was monitored every other day. Once the tumors are were palpable and reached 100 mm^3 in volume, treatment was commenced. […] Mice were treated every two days via intraperitoneal injection. Tumors were measured twice per week using calipers.
Description for p38 γ: (§1) Radiometric in vitro kinase assay: Radiometric in vitro kinase assay was performed by [sequence]
Description for p38δ: as §1

On to `Cc1ccc([N+](=O)[O-])cc1S(=O)(=O)N(C)/N=C/c1cnc2ccc(Br)cn12` [Compound 1], for which the “dose-dependent inhibition of kinase activity” value on p38β is reported as “not”. Moreover, the Activation z-score with Hut78 cells (IL-6 Signaling) is reported as −3.109; in the data set with Hut78 cells (NF-kB signaling) it was −3.623; in the data set on Hut78 cells (PI3K signaling), −3.108; with Hut78 cells (PI3KI/AKT signaling) it was −0.63; in the data set on Hut78 cells (PTEN), 1.25; with Hut78 cells (Role of NFAT in regulation of the immune response), −3.962. In addition, the Activation z-score is on record as −3.533 in the data set on Hut78 cells (Th1 pathway), −2.236 in the data set with Hut78 cells (Th2 pathway) and 1.152 in the data set on Hut78 cells (Wnt/B-catenin signaling). In the data set with p38γ, the “mRNA level of p38 gamma” value is reported as “reduces the mRNA level”. Further, the H3K27 acetylation result in the data set with H3K27 acetylation is on record as “blocked H3K27 acetylation”. For the same compound, the tumor growth entry is reported as “statistically significant inhibition of tumor growth” in the data set with Hut78 xenografts (2 mg/kg); “further significant reduction of tumor size” with Hut78 xenografts (10 mg/kg); “significantly inhibited tumor growth” in the data set on Hut78 xenografts (10 mg/kg, listed as F7/PIK75). Moreover, the “toxic effects in animal studies” value with Hut78 xenografts (mouse, in vivo) was “did not observe any toxic effects”. At p38δ, at 0.05 µM the inhibition was 5.4%. This compound also gave an inhibition at 0.2 µM against p38 γ of 59%.
